Reference: publication PMC9181188 (International Journal of Molecular Sciences, 2022)
Converted amounts (≈) assume the structure as drawn.

tested on: M. tuberculosis Spec. 210 (Multidrug-Resistant); test: microbe, parasite or virus in culture; assay type: cell-based, Mycobacterium tuberculosis; settings: Mycobacterium tuberculosis, 336 h, read-out: MIC M. tuberculosis Spec. 210 (Multidrug-Resistant)

Q: For `C/C=C/C(=O)N1CCCC2CN(c3c(F)cc4c(=O)c(C(=O)O)cn(C5CC5)c4c3OC)CC21` (stereo not drawn) [Compound 1m, 7-{1-(E)-But-2-enoyl-octahydro-pyrrolo[3,4-b]pyridin-6-yl}-1-cyclopropyl-6-fluoro-8-methoxy-4-oxo-1,4-dihydro-quinoline-3-carboxylic acid], which MIC is on record?
A: The MIC was 64 µg/mL (≈ 136 µM).

Q: For `COc1c(N2CC3CCCN(C(=O)/C=C(\C)CCC=C(C)C)C3C2)c(F)cc2c(=O)c(C(=O)O)cn(C3CC3)c12` (stereo not drawn) [Compound 3m, 1-Cyclopropyl-7-{1-(2E)-(3,7-dimethyl-octa-2,6-dienoyl)-octahydro-pyrrolo[3,4-b]pyridin-6-yl}-6-fluoro-8-methoxy-4-oxo-1,4-dihydro-quinoline-3-carboxylic acid], which MIC is on record?
A: The MIC was 128 µg/mL (≈ 232 µM).

Q: Which MIC does the source give for `CCCCCCCC/C=C\CCCCCCCC(=O)N1CCCC2CN(c3c(F)cc4c(=O)c(C(=O)O)cn(C5CC5)c4c3OC)CC21` (stereo not drawn) [Compound 4m, 1-Cyclopropyl-6-fluoro-8-methoxy-7-{1-(Z)-octadec-9-enoyl-octahydro-pyrrolo[3,4-b]pyridin-6-yl}-4-oxo-1,4-dihydro-quinoline-3-carboxylic acid] here?
A: Its MIC is over 512 µg/mL.

Q: `CCCCCCCC/C=C/CCCCCCCC(=O)N1CCCC2CN(c3c(F)cc4c(=O)c(C(=O)O)cn(C5CC5)c4c3OC)CC21` (stereo not drawn) [Compound 5m, 1-Cyclopropyl-6-fluoro-8-methoxy-7-{1-(E)-octadec-9-enoyl-octahydro-pyrrolo[3,4-b]pyridin-6-yl}-4-oxo-1,4-dihydro-quinoline-3-carboxylic acid] was tested. Which MIC did it give?
A: The MIC was 256 µg/mL (≈ 384 µM).

Q: `CC/C=C\C/C=C\C/C=C\CCCCCCCC(=O)N1CCCC2CN(c3c(F)cc4c(=O)c(C(=O)O)cn(C5CC5)c4c3OC)CC21` (stereo not drawn) [Compound 6m, 1-Cyclopropyl-6-fluoro-8-methoxy-7-{1-(9Z,12Z,15Z)-octadeca-9,12,15-trienoyl-octahydro-pyrrolo[3,4-b]pyridin-6-yl}-4-oxo-1,4-dihydro-quinoline-3-carboxylic acid] was tested. Which MIC did it give?
A: The MIC was 256 µg/mL (≈ 387 µM).

Q: For `CCCCCCCC/C=C\CCCCCCCCCCCC(=O)N1CCCC2CN(c3c(F)cc4c(=O)c(C(=O)O)cn(C5CC5)c4c3OC)CC21` (stereo not drawn) [Compound 7m, 1-Cyclopropyl-7-{1-(Z)-docos-13-enoyl-octahydro-pyrrolo[3,4-b]pyridin-6-yl}-6-fluoro-8-methoxy-4-oxo-1,4-dihydro-quinoline-3-carboxylic acid], which MIC is on record?
A: The MIC was over 512 µg/mL.

Q: Which MIC does the source give for `CC/C=C\C/C=C\C/C=C\C/C=C\C/C=C\C/C=C\CCC(=O)N1CCCC2CN(c3c(F)cc4c(=O)c(C(=O)O)cn(C5CC5)c4c3OC)CC21` (stereo not drawn) [Compound 8m, 1-Cyclopropyl-7-{1-(4Z,7Z,10Z,13Z,16Z,19Z)-docosa-4,7,10,13,16,19-hexaenoyl-octahydro-pyrrolo[3,4-b]pyridin-6-yl}-6-fluoro-8-methoxy-4-oxo-1,4-dihydro-quinoline-3-carboxylic acid] here?
A: The MIC was 2 µg/mL (≈ 2.81 µM).

Q: Which MIC does the source give for `CCCCCCCCCCCCCCCC(=O)N1CCC[C@H]2CN(c3c(F)cc4c(=O)c(C(=O)O)cn(C5CC5)c4c3OC)C[C@H]21` [Compound 9m, 1-Cyclopropyl-6-fluoro-7-(1-hexadecanoyl-octahydro-pyrrolo[3,4-b]pyridin-6-yl)-8-methox-4-oxo-1,4-dihydro-quinoline-3-carboxylic acid] here?
A: Its MIC is over 512 µg/mL.

Q: Which MIC does the source give for `CCCCC/C=C\C/C=C\CCCCCCCC(=O)N1CCCC2CN(c3c(F)cc4c(=O)c(C(=O)O)cn(C5CC5)c4c3OC)CC21` (stereo not drawn) [Compound 11m, 1-Cyclopropyl-6-fluoro-8-methoxy-7-{1-(9Z,12Z)-octadeca-9,12-dienoyl-octahydropyrrolo-[3,4-b]pyridin-6-yl)-4-oxo-1,4-dihydro-quinoline-3-carboxylic acid] here?
A: Its MIC is 256 µg/mL (≈ 386 µM).

Q: `CCCCC/C=C\C/C=C\C/C=C\C/C=C\CCCC(=O)N1CCCC2CN(c3c(F)cc4c(=O)c(C(=O)O)cn(C5CC5)c4c3OC)CC21` (stereo not drawn) [Compound 13m, 1-Cyclopropyl-6-fluoro-7-{1-(5Z,8Z,11Z,14Z)-icosa-5,8,11,14-tetraenoyl-octahydro-pyrrolo[3,4-b]pyridin-6-yl}-8-methoxy-4-oxo-1,4-dihydro-quinoline-3-carboxylic acid] was tested. Which MIC did it give?
A: Its MIC is 2 µg/mL (≈ 2.91 µM).

Q: `CCCCCCCC(=O)N1CCCC2CN(c3c(F)cc4c(=O)c(C(=O)O)cn(C5CC5)c4c3OC)CC21` (stereo not drawn) [Compound 15m, 1-Cyclopropyl-6-fluoro-8-methoxy-7-(1-octanoyl-octahydro-pyrrolo[3,4-b]pyridin-6-yl)-4-oxo-1,4-dihydro-quinoline-3-carboxylic acid] was tested. Which MIC did it give?
A: Its MIC is 128 µg/mL (≈ 243 µM).

Q: For `CCCCCCCCCCCCCCCCCC(=O)N1CCCC2CN(c3c(F)cc4c(=O)c(C(=O)O)cn(C5CC5)c4c3OC)CC21` (stereo not drawn) [Compound 16m, 1-Cyclopropyl-6-fluoro-8-methoxy-7-(1-octadecanoyl-octahydro-pyrrolo[3,4-b]pyridin-6-yl)-4-oxo-1,4-dihydro-quinoline-3-carboxylic acid], which MIC is on record?
A: The MIC was over 512 µg/mL.

Q: `CC[C@@H](CO)NCCN[C@@H](CC)CO` [Ethambutol (EMB), Ethambutol, reference compound] was tested. Which MIC did it give?
A: Its MIC is 32 µg/mL (≈ 157 µM).

Q: For `NNC(=O)c1ccncc1` [Isoniazid (INH), Isoniazid, reference compound], which MIC is on record?
A: Its MIC is 16 µg/mL (≈ 117 µM).

Q: With `CO[C@H]1/C=C/O[C@@]2(C)Oc3c(C)c(O)c4c(O)c(c(/C=N/N5CCN(C)CC5)c(O)c4c3C2=O)NC(=O)/C(C)=C\C=C\[C@H](C)[C@H](O)[C@@H](C)[C@@H](O)[C@@H](C)[C@H](OC(C)=O)[C@@H]1C` [Rifampicin (RMP), Rifampicin, reference compound] as the molecule, how does the MIC read?
A: Its MIC is 32 µg/mL (≈ 38.9 µM).

Q: Which MIC does the source give for `[H]/N=C(/N)N[C@H]1[C@H](O)[C@@H](O)[C@H](O[C@@H]2O[C@@H](C)[C@](O)(C=O)[C@H]2O[C@@H]2O[C@@H](CO)[C@H](O)[C@@H](O)[C@@H]2NC)[C@@H](N/C(N)=N\[H])[C@@H]1O` [Streptomycin (SM), Streptomycin, reference compound] here?
A: The MIC was 16 µg/mL (≈ 27.5 µM).

same assay, conditions: multidrug-resistant Spec. 210, versus INH, RMP, SM, EMB

Q: Which “fold higher activity than referential tuberculostatics” value does the source give for `CC/C=C\C/C=C\C/C=C\C/C=C\C/C=C\C/C=C\CCC(=O)N1CCCC2CN(c3c(F)cc4c(=O)c(C(=O)O)cn(C5CC5)c4c3OC)CC21` (stereo not drawn) [Compound 8m, 1-Cyclopropyl-7-{1-(4Z,7Z,10Z,13Z,16Z,19Z)-docosa-4,7,10,13,16,19-hexaenoyl-octahydro-pyrrolo[3,4-b]pyridin-6-yl}-6-fluoro-8-methoxy-4-oxo-1,4-dihydro-quinoline-3-carboxylic acid] here?
A: The value was 8–16 fold.

Q: Which “fold higher activity than referential tuberculostatics” value does the source give for `CCCCC/C=C\C/C=C\C/C=C\C/C=C\CCCC(=O)N1CCCC2CN(c3c(F)cc4c(=O)c(C(=O)O)cn(C5CC5)c4c3OC)CC21` (stereo not drawn) [Compound 13m, 1-Cyclopropyl-6-fluoro-7-{1-(5Z,8Z,11Z,14Z)-icosa-5,8,11,14-tetraenoyl-octahydro-pyrrolo[3,4-b]pyridin-6-yl}-8-methoxy-4-oxo-1,4-dihydro-quinoline-3-carboxylic acid] here?
A: The value was 8–16 fold.
